Test system: drug-resistant Mycobacterium tuberculosis
Settings: drug-resistant Mycobacterium tuberculosis growth; peptide 10 micrograms per ml; seven days

CC[C@H](C)[C@H](NC(=O)[C@H](Cc1ccccc1)NC(=O)[C@H](CCC(=O)O)NC(=O)[C@H](CCCCN)NC(=O)[C@H](C)NC(=O)[C@H](C)NC(=O)[C@H](CCC(N)=O)NC(=O)CNC(=O)[C@H](CCC(=O)O)NC(=O)[C@H](CC(C)C)NC(=O)[C@H](Cc1ccc(O)cc1)NC(=O)[C@H](CO)NC(=O)[C@H](CO)NC(=O)[C@@H](NC(=O)[C@H](CC(=O)O)NC(=O)[C@H](CO)NC(=O)[C@@H](NC(=O)[C@H](Cc1ccccc1)NC(=O)[C@@H](NC(=O)CNC(=O)[C@H](CCC(=O)O)NC(=O)[C@H](C)NC(=O)[C@H](Cc1c[nH]cn1)NC(=O)[C@H](CCCNC(=N)N)NC(=O)[C@H](CCC(=O)O)NC(=O)[C@H](Cc1ccccc1)NC(=O)[C@H](CCC(=O)O)NC(=O)[C@H](CC(=O)O)NC(=O)[C@@H](N)Cc1c[nH]cn1)[C@@H](C)O)[C@@H](C)O)C(C)C)C(=O)N[C@@H](C)C(=O)N[C@@H](Cc1c[nH]c2ccccc12)C(=O)N[C@@H](CC(C)C)C(=O)N[C@H](C(=O)N[C@@H](CCCCN)C(=O)NCC(=O)N[C@@H](CCCNC(=N)N)C(=O)NCC(=O)O)C(C)C [GLP-1]
% inhibition: 0.0%

Source: patent US20100311643A1, “USE OF GLP-1 AS A THERAPEUTIC AGENT” (priority 2007, published 2010)
